Reference: ChEMBL document CHEMBL4145442, “Novel LCK/FMS inhibitors based on phenoxypyrimidine scaffold as potential treatment for inflammatory disorders” (Eur J Med Chem, 2017)
Calls of active or inactive are those of the source. The calls are words filed in the database; no cut-off is given here.

Columns and labels:
[1] = test system: RAW264.7; test: Inhibition of LPS-induced NO production in mouse RAW264.7 cells after 24 hrs by Griess assay; format: functional, cell-based; conditions: RAW264.7, 24 h
[2] = molecular target: T1, Tyrosine-protein kinase Lck (Homo sapiens, UniProt P06239); test: Inhibition of LCK (unknown origin) after 120 mins in presence of 33P-ATP
Target sequence in this assay (P06239 whole entry): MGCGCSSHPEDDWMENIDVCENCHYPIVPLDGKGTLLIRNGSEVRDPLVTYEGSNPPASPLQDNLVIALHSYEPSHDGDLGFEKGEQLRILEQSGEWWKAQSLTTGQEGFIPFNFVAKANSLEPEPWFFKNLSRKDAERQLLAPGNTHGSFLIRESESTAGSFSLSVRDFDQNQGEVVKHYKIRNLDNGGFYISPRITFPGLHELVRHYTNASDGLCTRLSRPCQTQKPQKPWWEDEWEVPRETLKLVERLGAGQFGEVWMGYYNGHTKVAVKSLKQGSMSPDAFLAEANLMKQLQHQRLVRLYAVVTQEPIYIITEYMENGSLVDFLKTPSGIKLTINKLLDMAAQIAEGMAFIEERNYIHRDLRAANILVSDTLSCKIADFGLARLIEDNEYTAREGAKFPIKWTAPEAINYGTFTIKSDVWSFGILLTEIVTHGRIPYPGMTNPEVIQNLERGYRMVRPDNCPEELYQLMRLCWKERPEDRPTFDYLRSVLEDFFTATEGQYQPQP

[3] = molecular target: T1, Tyrosine-protein kinase Lck; test: Inhibition of LCK (unknown origin) assessed as remaining activity at […] x 10^-6 M after 120 mins in presence of 33P-ATP (reference value: […]% to […]%)
Target sequence in this assay (P06239 2-509 limits assumed): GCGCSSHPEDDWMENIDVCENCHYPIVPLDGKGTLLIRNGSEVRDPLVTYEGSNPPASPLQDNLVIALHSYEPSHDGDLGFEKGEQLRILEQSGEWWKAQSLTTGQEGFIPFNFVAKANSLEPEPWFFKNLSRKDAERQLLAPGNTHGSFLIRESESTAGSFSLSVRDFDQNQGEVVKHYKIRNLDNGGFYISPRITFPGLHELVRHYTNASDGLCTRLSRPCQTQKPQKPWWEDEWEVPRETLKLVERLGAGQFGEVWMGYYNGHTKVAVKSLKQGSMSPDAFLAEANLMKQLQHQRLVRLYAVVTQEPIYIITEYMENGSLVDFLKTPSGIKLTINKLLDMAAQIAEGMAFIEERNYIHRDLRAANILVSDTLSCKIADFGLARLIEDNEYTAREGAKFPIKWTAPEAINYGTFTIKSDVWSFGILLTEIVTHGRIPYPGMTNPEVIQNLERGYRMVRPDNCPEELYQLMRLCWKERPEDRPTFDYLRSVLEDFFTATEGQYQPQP

[4] = molecular target: T1, Tyrosine-protein kinase Lck; test: Inhibition of LCK (unknown origin) assessed as remaining activity at 1 x 10^-5 M after 120 mins in presence of 33P-ATP (reference value: […]% to […]%); conditions: at 10 µM
Target sequence in this assay (P06239 2-509 limits assumed): as above

[5] = molecular target: T1, Tyrosine-protein kinase Lck; test: Inhibition of LCK (unknown origin) assessed as remaining activity at 3.33 x 10^-6 M after 120 mins in presence of 33P-ATP (reference value: […]% to […]%); conditions: at 3.33 µM
Target sequence in this assay (P06239 2-509 limits assumed): as above

[6] = molecular target: T1, Tyrosine-protein kinase Lck; test: Inhibition of LCK (unknown origin) assessed as remaining activity at 3 x 10^-5 M after 120 mins in presence of 33P-ATP (reference value: […]% to […]%); conditions: at 30 µM
Target sequence in this assay (P06239 2-509 limits assumed): as above

[7] = molecular target: T1, Tyrosine-protein kinase Lck; test: Inhibition of LCK (unknown origin) assessed as remaining activity at 3.7 x 10^-7 M after 120 mins in presence of 33P-ATP (reference value: […]% to […]%); conditions: at 0.37 µM
Target sequence in this assay (P06239 2-509 limits assumed): as above

[8] = (§1) Cytotoxicity against mouse RAW264.7 cells after 4 hrs by MTT assay; format: cell-based; conditions: mouse, RAW264.7 cells
[9] = molecular target: High affinity nerve growth factor receptor (Homo sapiens, UniProt P04629)
Description: Inhibition of TRKA (unknown origin)

[10] = molecular target: Tyrosine-protein kinase Lyn (Homo sapiens, UniProt P07948)
Description: Inhibition of LYN (unknown origin)

[11] = test system: RAW264.7; test: as §1; format: cell-based; conditions: Mus musculus, RAW264.7, 4 h
[12] = test system: RAW264.7; test: Antiinflammatory activity against mouse RAW264.7 cells assessed as inhibition of LPS induced COX-2 protein expression at 3 to 12 uM after 24 hrs by Western blot analysis; format: functional, cell-based
[13] = molecular target: Macrophage colony-stimulating factor 1 receptor (Homo sapiens, UniProt P07333); test: Inhibition of FMS (unknown origin) after 120 mins in presence of 33P-ATP
[14] = test system: RAW264.7; test: Potency index, ratio of L-NIL IC50 to compound IC50 for inhibition of LPS-induced NO production in mouse RAW264.7 cells; format: functional
[15] = test system: RAW264.7; test: Antiinflammatory activity in mouse RAW264.7 cells assessed as inhibition of LPS-induced PGE2 production after 24 hrs by enzyme immunoassay; format: functional, cell-based; conditions: RAW264.7, 24 h
[16] = test system: RAW264.7; test: Antiinflammatory activity against mouse RAW264.7 cells assessed as inhibition of LPS-induced iNOS protein expression at 3 to 12 uM after 24 hrs by Western blot analysis; format: functional, cell-based

Sequence of Macrophage colony-stimulating factor 1 receptor (P07333 whole entry): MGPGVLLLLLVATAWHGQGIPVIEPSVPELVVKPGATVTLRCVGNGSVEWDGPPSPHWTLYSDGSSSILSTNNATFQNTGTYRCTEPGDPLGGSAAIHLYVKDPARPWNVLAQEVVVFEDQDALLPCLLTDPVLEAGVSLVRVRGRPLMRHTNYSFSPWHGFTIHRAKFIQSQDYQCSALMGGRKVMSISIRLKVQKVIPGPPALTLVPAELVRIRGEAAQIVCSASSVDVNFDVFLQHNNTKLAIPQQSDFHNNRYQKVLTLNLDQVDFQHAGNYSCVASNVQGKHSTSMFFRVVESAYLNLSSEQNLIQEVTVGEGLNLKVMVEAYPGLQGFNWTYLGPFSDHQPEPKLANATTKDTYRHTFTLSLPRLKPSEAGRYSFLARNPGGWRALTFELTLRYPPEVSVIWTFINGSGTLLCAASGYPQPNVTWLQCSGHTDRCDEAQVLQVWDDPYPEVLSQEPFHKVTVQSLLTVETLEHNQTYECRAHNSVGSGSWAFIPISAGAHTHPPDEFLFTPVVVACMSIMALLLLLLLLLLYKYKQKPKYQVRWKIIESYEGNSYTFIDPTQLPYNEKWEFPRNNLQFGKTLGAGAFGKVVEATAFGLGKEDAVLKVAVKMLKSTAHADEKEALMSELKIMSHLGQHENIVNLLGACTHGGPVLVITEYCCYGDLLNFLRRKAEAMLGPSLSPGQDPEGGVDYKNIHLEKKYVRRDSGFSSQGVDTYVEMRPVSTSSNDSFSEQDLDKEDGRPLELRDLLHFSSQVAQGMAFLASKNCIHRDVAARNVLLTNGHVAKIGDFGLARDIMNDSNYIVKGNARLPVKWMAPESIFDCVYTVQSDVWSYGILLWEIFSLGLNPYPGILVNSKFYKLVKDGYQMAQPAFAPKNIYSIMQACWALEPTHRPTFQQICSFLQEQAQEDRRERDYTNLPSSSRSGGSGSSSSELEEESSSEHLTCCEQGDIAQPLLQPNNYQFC
Sequence of Tyrosine-protein kinase Lyn (P07948 whole entry): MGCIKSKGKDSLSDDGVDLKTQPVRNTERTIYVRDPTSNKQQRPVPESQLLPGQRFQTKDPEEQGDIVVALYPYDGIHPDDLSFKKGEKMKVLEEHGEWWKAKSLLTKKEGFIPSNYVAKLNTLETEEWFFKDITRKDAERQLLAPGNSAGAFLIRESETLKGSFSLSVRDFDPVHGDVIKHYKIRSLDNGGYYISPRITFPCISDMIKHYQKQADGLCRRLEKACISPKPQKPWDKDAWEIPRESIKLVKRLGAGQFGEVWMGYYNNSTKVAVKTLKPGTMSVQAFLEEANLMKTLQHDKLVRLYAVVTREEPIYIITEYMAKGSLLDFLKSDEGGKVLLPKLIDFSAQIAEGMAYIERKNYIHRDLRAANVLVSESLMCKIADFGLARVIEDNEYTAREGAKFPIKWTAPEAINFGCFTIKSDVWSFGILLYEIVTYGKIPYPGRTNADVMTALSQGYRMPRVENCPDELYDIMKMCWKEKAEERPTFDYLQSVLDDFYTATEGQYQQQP
Sequence of High affinity nerve growth factor receptor (P04629 whole entry): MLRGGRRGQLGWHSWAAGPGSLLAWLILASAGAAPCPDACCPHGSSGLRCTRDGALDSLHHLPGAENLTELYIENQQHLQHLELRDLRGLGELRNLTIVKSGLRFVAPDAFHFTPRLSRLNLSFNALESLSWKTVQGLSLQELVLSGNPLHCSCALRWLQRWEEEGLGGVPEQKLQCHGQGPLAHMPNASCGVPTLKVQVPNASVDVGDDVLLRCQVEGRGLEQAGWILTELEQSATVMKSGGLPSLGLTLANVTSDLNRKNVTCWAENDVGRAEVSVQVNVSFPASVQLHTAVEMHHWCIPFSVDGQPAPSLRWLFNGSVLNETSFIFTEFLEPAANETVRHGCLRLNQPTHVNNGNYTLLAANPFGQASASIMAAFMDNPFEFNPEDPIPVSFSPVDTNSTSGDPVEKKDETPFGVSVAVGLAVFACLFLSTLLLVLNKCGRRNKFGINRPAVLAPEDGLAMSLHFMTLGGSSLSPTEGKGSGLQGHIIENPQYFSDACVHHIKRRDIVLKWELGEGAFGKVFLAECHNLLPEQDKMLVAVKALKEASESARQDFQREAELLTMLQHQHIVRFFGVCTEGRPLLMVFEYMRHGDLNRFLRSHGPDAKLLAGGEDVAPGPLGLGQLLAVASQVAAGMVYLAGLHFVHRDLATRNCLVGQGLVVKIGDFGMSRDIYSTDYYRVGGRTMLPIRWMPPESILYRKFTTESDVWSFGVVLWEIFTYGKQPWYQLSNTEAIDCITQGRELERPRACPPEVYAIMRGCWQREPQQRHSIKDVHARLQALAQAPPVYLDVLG

Compound	IC50 [1]	IC50 [2]	Activity [3]	Activity [4]	Activity [5]	Activity [6]	Activity [7]	IC80 at 4 h [8]	IC50 [9]	IC50 [10]	IC50 [11]	inhibition [12]	IC50 [13]	Ratio IC50 [14]	IC50 [15]	inhibition [16]
C/C(=N/N)NCCCC[C@H](N)C(=O)O	28.3 µM	–	–	–	–	–	–	–	–	–	–	–	–	–	–	–
COc1cc(C)ccc1Oc1nc(Nc2ccc(N3CCOCC3)cc2)ncc1/N=C/c1cccc(OC(C)C)c1	> 5 µM	0.039 µM	27.6 to 29.2%	19.8 to 20.8%	20 to 24.3%	12.4 to 16.2%	37.5 to 37.9%	> 6 µM	–	–	–	–	–	–	–	–
COc1cc(C)ccc1Oc1nc(Nc2ccc(N3CCOCC3)cc2)ncc1/N=C/c1ccccc1Cl	> 1 µM	0.225 µM	26.9 to 29.3%	11.3 to 11.5%	13.4 to 15.1%	6.29 to 7.37%	42.5 to 42.8%	> 1 µM	–	–	–	–	–	–	–	–
COc1cc(C)ccc1Oc1nc(Nc2ccc(N3CCOCC3)cc2)ncc1NCc1cccc(OC(F)(F)F)c1	–	22.1 µM	83.5 to 91.3%	61.3 to 65.9%	68.8 to 76.6%	44.9 to 45.8%	92.7 to 92.9%	–	–	–	–	–	–	–	–	–
COc1cc(NC(=O)Nc2cnc(Nc3ccc(N4CCOCC4)cc3)nc2Oc2ccc(C)cc2OC)cc(OC)c1	> 80 µM	0.502 µM	–	–	–	–	–	–	8.54 µM	4.2 µM	> 80 µM	–	–	–	–	–
COc1ccc(NC(=O)Nc2cnc(Nc3cc(OC)cc(OC)c3)nc2Oc2ccc(C)cc2OC)cc1	–	> 100 µM	98 to 102%	92.4 to 97.2%	96.5 to 99.7%	90.7 to 95.4%	96.3 to 102%	–	–	–	–	–	–	–	–	–
COc1cc(NC(=O)Nc2cnc(Nc3ccc(N4CCOCC4)cc3)nc2Oc2ccc(F)cc2)cc(OC)c1	–	71.1 µM	84 to 87.5%	68.9 to 70.1%	77.8 to 81.3%	52.5 to 61.6%	83.2 to 90.3%	–	–	–	–	–	–	–	–	–
COc1ccc(Oc2nc(Nc3ccc(N4CCOCC4)cc3)ncc2/N=C/c2cc(OC)cc(OC)c2)cc1	10.3 µM	0.022 µM	37.8 to 39.9%	27.4 to 28.3%	30.3 to 32.9%	44.8 to 48.5%	53.2%	> 12 µM	–	–	–	inactive	0.0046 µM	>2.5	5.22 µM	Active
COc1cc(C)ccc1Oc1nc(Nc2ccc(N3CCOCC3)cc2)ncc1/N=C/c1cc(C(F)(F)F)cc(C(F)(F)F)c1	–	0.006 µM	19.2 to 20.1%	55.5 to 56.8%	24.7 to 27.4%	24.1 to 28.5%	39.7 to 40.7%	–	–	–	–	–	–	–	–	–
COc1ccc(OC)c(/C=N/c2cnc(Nc3ccc(N4CCOCC4)cc3)nc2Oc2ccc(C)cc2OC)c1	> 1 µM	0.11 µM	19.9 to 21.8%	12.5 to 14.4%	12.8 to 13.1%	8.37 to 10.1%	38.7 to 38.9%	> 1 µM	–	–	–	–	–	–	–	–
COc1cc(/C=N/c2cnc(Nc3ccc(N4CCOCC4)cc3)nc2Oc2ccc(F)cc2)cc(OC)c1	–	3.17 µM	62.5 to 64.3%	39.9 to 41%	42.7 to 47.8%	65.3 to 69.2%	76.7 to 83.1%	–	–	–	–	–	0.021 µM	–	–	–
COc1cc(/C=N/c2cnc(Nc3ccc(N4CCOCC4)cc3)nc2Oc2cccc(OC)c2)cc(OC)c1	–	1.86 µM	52.6 to 55.2%	25.4 to 28.1%	34.8 to 36.1%	24 to 26.5%	74.3 to 74.7%	–	–	–	–	–	0.0086 µM	–	–	–
COc1cc(C)ccc1Oc1nc(Nc2ccc(N3CCOCC3)cc2)ncc1NC(=O)Nc1cc(C(F)(F)F)cc(C(F)(F)F)c1	–	> 100 µM	96 to 98%	89.7 to 95.1%	91 to 91.3%	83.5 to 89.8%	95.3 to 99.2%	–	–	–	–	–	–	–	–	–
COc1cc(C)ccc1Oc1nc(Nc2ccc(N3CCOCC3)cc2)ncc1NCc1ccc(Cl)cc1	–	0.312 µM	20 to 20.2%	7.08 to 7.66%	11.2 to 11.3%	2.49 to 2.9%	43.1 to 46.1%	–	–	–	–	–	–	–	–	–
COc1cc(C)ccc1Oc1nc(Nc2ccc(N3CCOCC3)cc2)ncc1NC(=O)Nc1cc(Cl)cc(Cl)c1	–	> 100 µM	90.9 to 97.7%	70.1 to 74.8%	80.2 to 80.7%	65.4 to 70%	98.6 to 101%	–	–	–	–	–	–	–	–	–
COc1cc(C)ccc1Oc1nc(Nc2ccc(N3CCOCC3)cc2)ncc1NC(=O)Nc1c(Cl)cccc1Cl	–	17.4 µM	86.8 to 89.4%	58.3 to 62.7%	75.6 to 81.8%	34.8 to 38.1%	93.2 to 97.7%	–	–	–	–	–	–	–	–	–
COc1cc(Nc2ncc(NC(=O)Nc3c(Cl)cccc3Cl)c(Oc3ccc(C)cc3OC)n2)cc(OC)c1	–	58.4 µM	94 to 95.5%	72.6 to 81.8%	85.2 to 88.2%	61.5 to 61.7%	93.7 to 96%	–	–	–	–	–	–	–	–	–
